From patent US4406903A, “Xanthine derivatives useful as antidepressives” (John Wyeth and Brother Limited, priority 1981, dated 1983)
Counter-ions that a name gives are not always drawn.

Tests used:
noradrenaline uptake = assay: Inhibition of Noradrenaline Uptake in Brain Slices (Procedure 1); type: cell-based, rat; conditions: 3H-noradrenaline 10^-7 M; active if % inhibition at 10^-6 M is at least that of imipramine at 10^-7 M
Method: (§1) Inhibition of 5-Hydroxytryptamine or Noradrenaline Uptake in Brain Slices
Two rates (weighing 170-200 g) are decapitated and the brains rapidly removed and placed in ice-cold Krebs solution. The cerebral cortex on each side of the median line is opened out flat and cut to give two slabs of even thickness. The slabs are weighed and then sliced on a McIlwain tissue chopper. The tissue is sliced twice, the second cutting being at an angle of 45° to the first. The interval of cutting is 0.1 mm. The slices are transferred to a 5 ml conical flask and Krebs solution is added in the proportion 5 ml/g tissue. The slices are dispersed in the solution by sucking up and down in a Pasteur pipette. […]
(§2) The filter papers are placed in scintillation vials and soaked in 4 ml ethanol/methanol (3:1 v/v) for at least 45 minutes before addition of 10 ml liquid scintillator after which the samples are counted in a liquid scintillation counter.
Uptake inhibition is expressed as follows: [formula] […] In this case a dose response experiment is carried out with the test compound and impramine at concentrations of 10^-5 M, 10^-6 M and 10^-7 M. The % inhibition is again calculated in the same way and the results are plotted as % inhibition against log compound concentration. […] The potency ratio compared to imipramine is calculated as: [formula] […]

[1] = test system: 5-hydroxytryptamine uptake; assay: Inhibition of 5-Hydroxytryptamine Uptake in Brain Slices (Procedure 1); type: cell-based, rat; conditions: for inhibition at 0.1 µM / inhibition at 1 µM / inhibition at 10 µM: rat cerebral cortex slices, 3H 5-hydroxytryptamine 10^-7 M; for Inhibition of 5-hydroxytryptamine uptake, potency ratio compared with imipramine: IC50-based ratio versus imipramine, rat brain slices; for Potency in 5-hydroxytryptamine tests (in words, versus imipramine): qualitative comparison with the standard inhibitor imipramine
Method: as §1
Two rates (weighing 170-200 g) are decapitated and the brains rapidly removed and placed in ice-cold Krebs solution. The cerebral cortex on each side of the median line is opened out flat and cut to give two slabs of even thickness. The slabs are weighed and then sliced on a McIlwain tissue chopper. The tissue is sliced twice, the second cutting being at an angle of 45° to the first. The interval of cutting is 0.1 mm. The slices are transferred to a 5 ml conical flask and Krebs solution is added in the proportion 5 ml/g tissue. The slices are dispersed in the solution by sucking up and down in a Pasteur pipette. When a satisfactory suspension is achieved it is pipetted in 50 μl portions into 25 ml conical flasks containing 4.5 ml chilled Krebs solution. An Eppendorf pipette with the tip cut back to about 1 mm diameter is used. The suspension is kept well mixed at this stage so that each portion taken contains the same amount of tissue (~10 mg). The flasks are gassed with 95% O2 /5% CO2 and sealed with aluminium foil. They are then placed in a water bath at 27° for 15 minutes pre-incubation.
Flasks in groups of four are then each treated by an addition in 0.5 ml. to achieve the following concentrations in the medium. […]
______________________________________
GROUP CONCENTRATION (CONCENTRATION)
A 10^-7 M TEST COMPOUND (10^-5 M)
B 10^-7 M IMIPRAMINE (10^-5 M)
C 10^-7 M IMIPRAMINE (10^-6 M)
D 10^-7 M IMIPRAMINE (10^-7 M)
After 20 minutes incubation the slices are filtered off in filter funnels connected to a vacuum line. Each flask in rinsed with 5 ml Krebs which is also poured through the filter funnel followed by a further 5 ml Krebs. For group F the treatment differs in that ^3 H 5-hydroxytryptamine in 0.5 ml is added immediately before filtration. This gives an estimation of the amount of activity retained by the filter from the solution together with the amount of non-specific binding by the tissue.
as §2
Uptake inhibition is expressed as follows: [formula] […] In this case a dose response experiment is carried out with the test compound and impramine at concentrations of 10^-5 M, 10^-6 M and 10^-7 M. The % inhibition is again calculated in the same way and the results are plotted as % inhibition against log compound concentration. The molar concentration which inhibits uptake by 50% (IC50) is determined. The potency ratio compared to imipramine is calculated as: [formula]

L-noradrenaline reuptake = assay: Inhibition of L-noradrenaline reuptake in rat cortical synaptosomes (Procedure 2); type: biochemical; conditions: 10^-7 M 3H-L-noradrenaline, 37° C., 4 min, pH 7.4, read-out: NA Uptake IC50
Source text: (§3) Inhibition of 5-hydroxytryptamine and L-noradrenaline reuptake in rat cortical synaptosomes
Ref: E. G. Gray and V. P. Whittaker (1962). J. Anat 96, p 79-88.
(§4) "The isolation of nerve endings from brain: An electron microscopic study of cell fragments dervied by homogenisation and centrifugation."
(§5) Test object: Purified rat cortical synaptosomes (P2 B) from 8-10 male albino rats (190-250 g).
Procedure: Rats are stunned and then killed by decapitation. The brain is quickly removed and the cortex excised essentially free of striatum and mid-brain. The tissue is then gently homogenised (10 strokes at 840 rpm) in 0.32 M sucrose. […]
Test compounds may be present in 4 to 6 concentrations depending on previous experience, but normally the range would be 10^-9 M to 10^-6 M for an active compound. The quantity of material prepared per experiment would normally be sufficient to examine the effects of 30 different treatments (e.g. 6 compounds each at 5 concentrations in triplicate). […] The radioactivity retained on the filter is determined by the addition of Instagel (10 ml) (Packard) and subsequent liquid scintillation counting to convert results into dpm. […] Percentage inhibition of uptake is calculated as [formula] where background dpm is that accumulated in a sodium-free medium. […]

[2] = test system: 5-hydroxytryptamine reuptake; assay: Inhibition of 5-hydroxytryptamine reuptake in rat cortical synaptosomes (Procedure 2); type: biochemical; conditions: for Selectivity Ratio (5-HT uptake over NA uptake): from IC50 values of NA and 5-HT uptake; for IC50: 10^-7 M 14C-5-hydroxytryptamine, 37° C., 4 min, pH 7.4, read-out: 5-HT Uptake IC50
Source text: as §3, §4, §5
Procedure: Rats are stunned and then killed by decapitation. The brain is quickly removed and the cortex excised essentially free of striatum and mid-brain. […] The homogenate of concentration 10% w/v in 0.32 sucrose is centrifuged at an average centrifugal force of 1000×g for 10 minutes and the supernatant is decanted and centrifuged at an average of 10000×g for 20 min to obtain the crude mitochondrial pellet (P2). […] The synaptosomes are then centrifuged in a swing-out rotor at 97 000×g average for 30 min. […] (2 ml/g original tissue). Throughout the procedure, it is essential to maintain the tissue and synaptosomes at […]. Synaptosomes should be used within three hours of preparation. A 100 μl aliquot of this synaptosomal suspension (2.5-3.0 mg protein/ml) is added to the incubation medium (900 μl) which has been preincubated at 37° C. for 5 min. […] All reagents are of `Analar` grade and glass distilled water is used.
The quantity of material prepared per experiment would normally be sufficient to examine the effects of 30 different treatments (e.g. 6 compounds each at 5 concentrations in triplicate). […] The filters are then washed with 2.4 ml incubation medium. The radioactivity retained on the filter is determined by the addition of Instagel (10 ml) (Packard) and subsequent liquid scintillation counting to convert results into dpm. The non-specific binding and passive accumulation of both amines is corrected for by determining uptake in a sodium-free medium. Percentage inhibition of uptake is calculated as [formula] where background dpm is that accumulated in a sodium-free medium.
Assays are run in triplicate, with 2 or 3 control and background determinations inserted randomly. The selectivity ratio is calculated as: [formula]

In the case of `Cn1c(=O)c2c(ncn2CCCNCCc2c[nH]c3ccccc23)n(C)c1=O` [Example 3, N-[3-theophyllin-7-yl)propyl]tryptamine hydrochloride], the “Inhibition of noradrenaline uptake” value (noradrenaline uptake) is reported as “INACTIVE”, the inhibition at 0.1 µM [1] is reported as 4% and the inhibition at 1 µM [1] is reported as 43%. For the same compound, the inhibition at 10 µM [1] was 77%, the “Inhibition of 5-hydroxytryptamine uptake, potency ratio compared with imipramine” value [1] was 0.8 and the “Potency in 5-hydroxytryptamine tests (in words, versus imipramine)” value [1] was “about the same order of potency as the standard inhibitor imipramine”.

`CN(C)CCCN1c2ccccc2CCc2ccccc21` [imipramine, reference compound] was tested, and the IC50 (L-noradrenaline reuptake) was 50 nM, the “Selectivity Ratio (5-HT uptake over NA uptake)” value ([2]; rat cortical synaptosomes) was 0.5 and the IC50 ([2]; rat cortical synaptosomes) was 100 nM.

In the case of `Cn1c(=O)c2c(ncn2CCCNCCc2c[nH]c3ccc(O)cc23)n(C)c1=O` [Example 1, 5-hydroxy-N-[3-(theophyllin-7-yl)propyl]tryptamine hydrochloride hemihydrate], the IC50 (L-noradrenaline reuptake) is reported as > 10000 nM, the “Selectivity Ratio (5-HT uptake over NA uptake)” value ([2]; rat cortical synaptosomes) is reported as > 167 and the “Selectivity of action (in words)” value ([2]; qualitative, 5-HT versus NA uptake) is reported as “very selective in its action”. The “Inhibition of 5-HT uptake (in words)” value ([2]; qualitative, rat cortical synaptosomes) was “very potent inhibitor of 5-HT uptake”, the IC50 ([2]; rat cortical synaptosomes) was 60 nM and the “Inhibition of noradrenaline uptake” value (noradrenaline uptake) was “INACTIVE”. For the same compound, the inhibition at 0.1 µM [1] was 44%, the inhibition at 1 µM [1] was 77% and the inhibition at 10 µM [1] was 84%. The “Inhibition of 5-hydroxytryptamine uptake, potency ratio compared with imipramine” value [1] was 4.3 and the “Potency in 5-hydroxytryptamine tests (in words, versus imipramine)” value [1] was “considerably more potent than imipramine”.
